Data on one compound can be found in paper PMC8032764 (Scientific Reports, 2021).

As a reminder, the Ki is the dissociation constant of the complex between target and ligand, obtained from inhibition or displacement. Low values mean a stronger hold on the target, high ones a looser hold on the target. By % Inhibition is commonly meant the change of the read-out against control, counted positive when it falls.

Structures are written as SMILES. Read-outs that look alike come from different tables or passages of the source.

The target of data set [1] is T1, human GABAA α2β3γ2 receptors (Homo sapiens, UniProt P18507+P47869).
T1 construct: expressed in transfected cells; host or cells: HEK293-EBNA, transient
The data set can be described thus: [3H]-flumazenil competition binding, HEK293 membranes. Particulars: 1 nM [3H]-flumazenil. As to the method:
(§1) HEK293-EBNA cells adapted to grow in suspension were transiently transfected with the plasmids containing the desired GABAA receptor subunit cDNAs at α, β, γ, 1:1:2 ratio using XtremeGENE Q2 (Cat. No. 03045595001, Roche Applied Science, RAS, Rotkreuz, Switzerland) as previously described. GABAA α1β2γ2, α2β3γ2, α3β3γ2, α4β3γ2, α5β3γ2 and α6β3γ2 receptor subtypes were expressed in this system. 48 h post transfection, the cells were harvested and washed three times with cold PBS and frozen at − 80 °C.
(§2) Non-specific binding was determined in the presence of 10 μM diazepam.

Data set [2] has as its target T2, human GABAA α3β3γ2 receptors (Homo sapiens, UniProt P18507+P34903).
T2 construct: expressed in transfected cells; host or cells: HEK293-EBNA, transient
The data set is described as above. Particulars: 1 nM [3H]-flumazenil. As to the method:
as §1, §2

The next data set relates to T3, Adenosine A1.
T3 construct: host or cells: CHO
The data set can be described thus: Cerep binding. Also noted: species or system human. Particulars: 10 μM; [3H]DPCPX; hum. recomb. (CHO).

For a further data set, the system named is T4, Glucocorticoid.
T4 construct: hum., IM-9 cells,; host or cells: IM-9 cells, cytosol
The data set can be described thus: Cerep binding. Details: species or system human. Particulars: 10 μM; [3H]dexamethasone; hum., IM-9 cells, cytosol.

The subject of the next data set is rats. In words: GLP toxicology and safety pharmacology, daily oral administration. The class given is in vivo, rat. Particulars: supra-therapeutic plasma exposures, up to 26 weeks.
For a further data set, the system named is T5, Endothelin ETA.
T5 construct: purchased Eurofins Cerep
The data set can be described thus: Cerep binding. Details: species or system human. Particulars: 10 μM; [125I]endothelin-1; hum. recomb. (CHO).

The next data set has as its system T6, Opioid μ.
T6 construct: host or cells: HEK-293
In words: Cerep binding. Also noted: species or system human. Particulars: 10 μM; [3H]DAMGO; hum. recomb. (HEK-293).

The target in another data set is T7, GABAA-α5 receptors (Homo sapiens, UniProt P18507+P31644).
T7 construct: occupancy at the GABAA-α5 subunit-containing receptors in the human brain after oral dosing; from tissue; host or cells: brain of healthy human volunteers, in vivo PET
T7 sequence (P31644 32-462): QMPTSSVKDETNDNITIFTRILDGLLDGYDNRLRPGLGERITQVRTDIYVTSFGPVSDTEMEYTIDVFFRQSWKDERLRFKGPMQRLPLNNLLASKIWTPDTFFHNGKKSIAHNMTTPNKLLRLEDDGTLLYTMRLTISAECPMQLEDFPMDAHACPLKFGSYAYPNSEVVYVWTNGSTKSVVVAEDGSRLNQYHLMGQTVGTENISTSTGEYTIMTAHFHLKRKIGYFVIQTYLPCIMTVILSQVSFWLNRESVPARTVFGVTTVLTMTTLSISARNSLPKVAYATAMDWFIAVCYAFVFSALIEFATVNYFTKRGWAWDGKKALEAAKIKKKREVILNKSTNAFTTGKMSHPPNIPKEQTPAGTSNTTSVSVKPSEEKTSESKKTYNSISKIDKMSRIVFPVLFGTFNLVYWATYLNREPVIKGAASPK
T7 sequence (P18507 40-467 limits assumed): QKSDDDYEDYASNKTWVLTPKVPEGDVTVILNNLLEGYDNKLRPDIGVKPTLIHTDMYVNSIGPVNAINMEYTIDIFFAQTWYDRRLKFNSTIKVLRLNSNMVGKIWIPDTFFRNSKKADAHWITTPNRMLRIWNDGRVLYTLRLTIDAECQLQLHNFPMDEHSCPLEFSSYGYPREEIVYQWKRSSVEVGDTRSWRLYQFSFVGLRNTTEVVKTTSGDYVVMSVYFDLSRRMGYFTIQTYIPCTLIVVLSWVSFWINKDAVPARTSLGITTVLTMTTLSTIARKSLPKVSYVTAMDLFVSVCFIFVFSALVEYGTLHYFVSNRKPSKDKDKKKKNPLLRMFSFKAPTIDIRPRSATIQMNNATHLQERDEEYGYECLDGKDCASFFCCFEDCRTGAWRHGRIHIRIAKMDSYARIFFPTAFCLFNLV
T7 sequence (P28472 26-473 partner): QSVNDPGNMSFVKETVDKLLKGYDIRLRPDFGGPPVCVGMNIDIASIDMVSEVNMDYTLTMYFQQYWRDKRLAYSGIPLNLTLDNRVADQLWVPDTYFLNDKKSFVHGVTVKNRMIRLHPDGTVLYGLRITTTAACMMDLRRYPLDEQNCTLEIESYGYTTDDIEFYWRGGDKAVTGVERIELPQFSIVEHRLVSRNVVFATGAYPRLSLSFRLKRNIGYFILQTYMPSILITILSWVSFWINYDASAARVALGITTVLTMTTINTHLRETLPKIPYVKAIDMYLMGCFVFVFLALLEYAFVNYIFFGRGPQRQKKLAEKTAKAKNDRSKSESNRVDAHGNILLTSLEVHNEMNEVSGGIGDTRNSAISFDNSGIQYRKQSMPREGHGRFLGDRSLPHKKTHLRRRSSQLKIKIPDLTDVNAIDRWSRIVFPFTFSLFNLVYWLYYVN
The data set can be described thus: Receptor occupancy during EEG assessments. The data set is classed as in vivo. Particulars: 240 mg twice daily.

The subject of another data set is NMDA (PCP). In words: Cerep binding. The following applies: 10 μM; [3H]TCP; rat cerebral cortex.
Another data set has as its system T8, Adenosine A2A.
T8 construct: host or cells: HEK-293
In words: Cerep binding. Details: species or system human. Particulars: 10 μM; [3H]CGS 21680; hum. recomb. (HEK-293).

The subject of data set [3] is T9, Prostanoid TP (TXA2/PGH2).
T9 construct: host or cells: HEK-293
The data set can be described thus: Cerep binding. Details: species or system human. The following applies: 10 μM; [3H]SQ 29548; hum. recomb. (HEK-293).

The next data set concerns T10, Dopamine transporter.
T10 construct: host or cells: CHO
In words: Cerep binding. Also noted: species or system human. Particulars: 10 μM; [3H]BTCP; hum. recomb. (CHO).

A further data set has as its system T11, Chemokine CXCR2 (IL-8B).
T11 construct: purchased Eurofins Cerep
The data set can be described thus: Cerep binding. Also noted: species or system human. Particulars: 10 μM; [125I]IL-8; hum. recomb. (HEK-293).

The subject of another data set is T12, Galanin 1.
T12 construct: purchased Eurofins Cerep
In words: Cerep binding. Details: species or system human. Particulars: 10 μM; [125I]galanin; hum. recomb. (HEK-293).

The test system of the next data set is T13, Muscarinic M3.
T13 construct: host or cells: CHO
In words: Cerep binding. Also noted: species or system human. The following applies: 10 μM; [3H]4-DAMP; hum. recomb. (CHO).

The test system of data set [4] is T14, Vasoactive intestinal peptide VPAC1 (VIP1).
T14 construct: host or cells: CHO
The data set can be described thus: Cerep binding. Also noted: species or system human. The following applies: 10 μM; [125I]VIP; hum. recomb. (CHO).

Turning to `Cc1onc(-c2ccc(F)cc2)c1COc1ccc(C(=O)N2CCS(=O)(=O)CC2)cn1` [basmisanil], the Ki came out at 458 ± 27 nM in data set [1] and 510 ± 21 nM in [2]. The “% Inhibition” value in the data set on Adenosine A1 is recorded as 28%; with Glucocorticoid, -2%; with Endothelin ETA, 8%; with Opioid μ, 3%; in the data set on NMDA (PCP) it was 14%; in the data set on Adenosine A2A, 9%. Further, the “% Inhibition” value is 5% in [3]; 19% in the data set with Dopamine transporter; -3% in the data set with Chemokine CXCR2 (IL-8B); 0% in the data set on Galanin 1; 4% in the data set with Muscarinic M3; 0% in data set [4]. The “convulsions and EEG alterations” value in the data set with rats is “no convulsions and no EEG alterations”. Moreover, the receptor occupancy at 240 mg on GABAA-α5 receptors (14 days, read-out: occupancy of GABAA-α5 receptors) was greater than 90%; on GABAA-α5 receptors (day 14, 1 h post morning dose, read-out: receptor occupancy), 92 ± 3%; at GABAA-α5 receptors (day 14, 4 h post morning dose, read-out: receptor occupancy), 94 ± 1.5%.
